The text below walks through data of patent US11453660B2, “Androgen receptor and glucocorticoid receptor modulators” (ONCOSTELLAE, S.L., priority 2017, dated 2022).

Experiment [1] deals with T1, Human Glucocorticoid Receptor (Homo sapiens, UniProt P04150).
T1 construct: endogenous in cells; host or cells: cytosol from IM-9 cell line
T1 sequence (P04150 1-777): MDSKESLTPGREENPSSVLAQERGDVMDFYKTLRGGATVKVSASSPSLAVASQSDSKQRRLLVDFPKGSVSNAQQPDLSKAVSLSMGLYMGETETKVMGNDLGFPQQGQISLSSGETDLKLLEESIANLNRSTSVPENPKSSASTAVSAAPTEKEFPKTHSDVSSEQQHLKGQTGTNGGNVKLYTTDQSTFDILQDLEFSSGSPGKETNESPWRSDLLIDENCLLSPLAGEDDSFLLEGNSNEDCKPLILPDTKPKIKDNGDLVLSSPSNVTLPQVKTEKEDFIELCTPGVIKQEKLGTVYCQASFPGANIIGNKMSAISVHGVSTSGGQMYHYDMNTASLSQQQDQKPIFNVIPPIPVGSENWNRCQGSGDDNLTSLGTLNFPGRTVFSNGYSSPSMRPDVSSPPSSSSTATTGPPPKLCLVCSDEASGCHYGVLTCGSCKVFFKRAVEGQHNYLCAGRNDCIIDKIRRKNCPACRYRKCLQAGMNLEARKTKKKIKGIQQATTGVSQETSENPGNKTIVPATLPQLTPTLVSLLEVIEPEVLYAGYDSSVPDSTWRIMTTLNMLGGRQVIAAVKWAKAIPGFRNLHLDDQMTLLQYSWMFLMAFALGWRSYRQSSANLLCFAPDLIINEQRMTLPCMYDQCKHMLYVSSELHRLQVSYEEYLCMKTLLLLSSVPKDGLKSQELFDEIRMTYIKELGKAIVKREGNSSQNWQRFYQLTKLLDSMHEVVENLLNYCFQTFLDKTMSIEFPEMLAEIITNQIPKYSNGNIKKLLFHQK
The experiment can be described thus: Competition Binding in IM-9 Human Glucocorticoid Receptor (GR IM-9). The note with it: cytosol from IM-9 cell line, 1.5 nM [3H]-Dexamethasone, 4° C. for 6 hours. In a few lines:
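Radioligand competition using 100 μg IM-9 cell cytosol and 1.5 nM [3H]-dexamethasone, incubated 6 h at 4° C in TES/molybdate buffer, pH 7.4. Filtration on PEI-treated GF/B filters, scintillation counting; nonspecific binding defined with 10 μM triamcinolone.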

A further experiment deals with T2, human androgen receptor (Homo sapiens, UniProt P10275, T878A).
T2 construct: endogenously expressed human androgen receptor using the LnCap prostate cancer cell line; endogenous in cells; host or cells: LNCaP prostate cancer cell line (whole cells)
T2 sequence (P10275 1-920 T878A): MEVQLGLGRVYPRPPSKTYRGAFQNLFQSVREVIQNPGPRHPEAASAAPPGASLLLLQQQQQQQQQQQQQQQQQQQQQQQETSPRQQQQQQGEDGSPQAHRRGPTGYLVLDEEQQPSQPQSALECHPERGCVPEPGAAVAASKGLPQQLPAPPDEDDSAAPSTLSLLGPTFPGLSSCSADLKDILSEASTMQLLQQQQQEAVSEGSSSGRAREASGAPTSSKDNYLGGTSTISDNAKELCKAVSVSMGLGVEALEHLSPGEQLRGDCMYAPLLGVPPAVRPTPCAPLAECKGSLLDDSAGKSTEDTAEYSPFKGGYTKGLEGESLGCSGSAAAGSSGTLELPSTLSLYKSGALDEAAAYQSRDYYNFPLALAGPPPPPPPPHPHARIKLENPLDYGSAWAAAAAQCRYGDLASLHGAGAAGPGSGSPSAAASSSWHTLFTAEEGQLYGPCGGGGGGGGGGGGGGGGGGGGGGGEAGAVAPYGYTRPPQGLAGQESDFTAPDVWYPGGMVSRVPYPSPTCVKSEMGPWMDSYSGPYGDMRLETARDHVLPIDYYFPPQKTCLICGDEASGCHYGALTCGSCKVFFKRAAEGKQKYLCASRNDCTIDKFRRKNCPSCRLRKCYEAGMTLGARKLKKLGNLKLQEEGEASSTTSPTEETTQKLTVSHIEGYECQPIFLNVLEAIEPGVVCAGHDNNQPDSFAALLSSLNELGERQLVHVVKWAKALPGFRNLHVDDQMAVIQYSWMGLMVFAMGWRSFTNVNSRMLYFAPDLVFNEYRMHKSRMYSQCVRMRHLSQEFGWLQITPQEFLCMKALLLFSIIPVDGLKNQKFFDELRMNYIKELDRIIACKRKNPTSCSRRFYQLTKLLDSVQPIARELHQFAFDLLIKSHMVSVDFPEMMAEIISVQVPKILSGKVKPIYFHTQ
Put plainly: Human Androgen Receptor Binding (radioligand binding, LnCap prostate cancer cell line). The note with it: LnCap cells, displacement of [^3H]-methyltrienolone, 2 hours at 37° C.; read-out: AR LNCaP. In a few lines: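 Whole-cell displacement of [3H]-methyltrienolone from endogenous AR (T878A) in LnCap cells, in RPMI with 0.1% BSA and triamcinolone acetonide. Compounds 10 μM to 0.1 nM in 1:10 steps, 2 h at 37 °C; cells washed, SDS-lysed, bound radioactivity by scintillation counting for IC50.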

Bounds are passed on as bounds.

`CC(=O)C1=C(C)NC(C)=C(C(=O)OCC2CCOCC2)C1c1csc2ccc(Cl)cc12` (centres unmarked) [Example C43, (Tetrahydro-2H-pyran-4-yl)methyl 5-acetyl-4-(5-chlorobenzo[b]thiophen-3-yl)-2,6-dimethyl-1,4-dihydropyridine-3-carboxylate]: the IC50 in experiment [1] was 0.1 to 1 µM; at human androgen receptor it was at least 1 µM.
